Assays:
PANC-1 cells = test: Cell proliferation assay for PANC-1 cells; assay type: cell-based; settings: 12.5 μM, media with 5% serum, five days (FIG. 3)
Protocol: (§1) The adult glioblastoma cell line U87MG was obtained from a commercial source (ATCC). The pancreatic cancer cell line PANC-1 was obtained from a local laboratory (Indiana University). Both lines were grown in Iscove's Modified Dulbecco's Medium with 10% fetal bovine serum (FBS) at 37° C. and 5% CO2.
(§2) Compounds (1), (2), (3), (4), and (5), which are shown and described above, were each dissolved in ethanol at 10 mg/mL. A measured portion of the solution was pipetted into a microcentrifuge tube. Then, the ethanol was evaporated from each tube using a SpeedVac®, leaving just the compound in the tube. The appropriate amount of chloroform was added to the tube to produce a 0.1 M concentration. The solutions were placed on ice and in the dark so they could be pipetted into 10- and 20-μL aliquots in 1.5 mL microcentrifuge tubes. The solutions were frozen at […] with lids closed tightly and the tubes covered with foil.
(§3) Prior to treating the cells, a tube of the test compound was removed from the freezer and placed under a biosafety hood to evaporate the chloroform in the tubes. Then, dimethyl sulfoxide (DMSO) was added to the tubes to make the correct concentration to use in the experiment (0.1 M stock). The tubes were vortexed, and warm media with 10% FBS was slowly added to make the correct working concentrations to be used in the experiment. The compounds were directly added to each well for treatment.
The cells were treated in triplicate with standard concentrations of 6.25, 12.5, 25, 50, and 100 μM of each test compound (3) and (5) and the reference compound FTS and, when needed, concentrations of 0.625, 1.25, 2.5 and 5.0 μM in media with 5% serum for five days. Then, the cells were stained with trypan blue, and the cell number per each well was determined. Again, the IC50 values were calculated using Multiplex Reader-Fit software made by MiraiBio Group, Hitachi Solutions America, Ltd. In a typical experiment, the control wells averaged 32,500 cells. The results are presented graphically in FIG. 3. […]

U87MG cells = test: Cell proliferation assay for U87MG cells; assay type: cell-based
Protocol: as §1, §2, §3
U87MG cells were seeded in a 24-well plate, 5000 cells per well, and incubated overnight at 37° C. in serum-free media. The next day they were treated in triplicate with 50 and 100 μM of each test compound (1), (2), (3), (4), and (5) and the reference compound FTS. After five days, the cells were trypsinized (0.5%), stained with trypan blue, and counted to determine the cell number per well. The half-maximal inhibitory concentration (IC50) values were calculated using Multiplex Reader-Fit software made by MiraiBio Group, Hitachi Solutions America, Ltd. In a typical experiment, the control wells averaged 138,000 cells. The results are presented graphically in FIG. 1. The test compounds at 50 μM allowed the following U87MG cell proliferation compared to control: compound (1)—37%, compound (2)—18%, compound (3)—10%, compound (4)—40%, and compound (5)—0%. The reference compound FTS at 50 μM allowed 7% cell proliferation compared to control.
To further evaluate compounds (3) and (5), which inhibited the most cell growth in FIG. 1, more U87MG cells were seeded in 24-well plates, 5000 cells per well, and incubated overnight at 37° C. in serum-free media. The cells were treated the next morning in media with 5% serum in triplicate with standard concentrations of 6.25, 12.5, 25, and 50 μM of each test compound (3) and (5) and the reference compound FTS. After five days of treatment, the cells were trypsinized (0.5%) and then stained with trypan blue. Cells were counted to determine the number of cells per well. Again, the IC50 values were calculated using Multiplex Reader-Fit software made by MiraiBio Group, Hitachi Solutions America, Ltd. In a typical experiment, the control wells averaged 56,000 cells. The results are presented graphically in FIG. 2. The test compounds at 25 μM allowed the following U87MG cell proliferation compared to control: compound (3)—69% and compound (5)—0%. The reference compound FTS at 25 μM allowed over 50% cell proliferation compared to control.
Since the doses of compound (5) used above killed all of the cells, the dose curve was set up again using even lower doses of compound (5). U87MG cells were seeded in 24-well plates, 5000 cells per well, and incubated overnight at 37° C. in serum-free media. The cells were treated in triplicate with 6.25, 12.5, 25, and 50 μM of the reference compound FTS and 0.3125, 0.625, 1.25, 2.5, and 5.0 μM of the test compound (5) in media with 5% serum for five days. Then, the cells were trypsinized (0.5%) and stained with trypan blue, and the cell number per each well was determined. […]

[1] = tested on: primary human lung fibroblasts; test: Inhibition of TGF-β induced myofibroblast formation (α-SMA Western blot); assay type: cell-based; settings: TGF-β 72 hours, concentrations below 25 μM
Protocol: Primary human lung fibroblasts were stimulated for 72 hours with transforming growth factor beta (TGF-β) to induce their differentiation to an alpha smooth muscle actin (α-SMA) expressing activated myofibroblasts cell fate. […] The activin like kinase receptor (ALK5) inhibitor SB431542 was used as a positive control. Myofibroblast formation was evaluated by Western blot by examining changes in α-SMA levels.

[2] = tested on: NF-1-/- S100+ Schwann cells; test: NF-1-/- Schwann cell proliferation (visible spectroscopy); assay type: cell-based, mouse; settings: 25-50 μM, 24 hrs after PDGF stimulation (FIG. 5B)
Protocol: (§4) A purified population of NF-1−/−S 100+Schwann cells isolated from a plexiform neurofibroma in a genetically engineered mouse (Zhu, Y. et al., Science, May 2002, 3; 296(5569)):920-922) were stimulated with a maximum stimulating concentration of platelet derived growth factor (PDGF) in the presence of a control or compound (3) at concentrations of 2.5-5 μM. Ras-GTP was measured 3 minutes subsequently using Western blot analysis. […] In parallel experiments, Schwann cell proliferation was measured using visible spectroscopy 24 hrs after PDGF stimulation in the presence of a control or compound (3) at concentrations of 25-50 μM. […] Each asterisk in FIG. 5B represents a statistical difference relative to the control using analysis of variance. (Yang, Feng-Chun, et. al. J Clin Invest 2003, 112(12), 1851-1861; Yang, Feng-Chun, et. al. Hum Mol Genet 2006, 15(11), 1921-1930).

Ras-GTP = Ras-GTP Western blot in PDGF-stimulated NF-1-/- Schwann cells; assay type: cell-based, mouse; settings: 2.5-5 μM, 3 minutes after PDGF stimulation (FIG. 5A)
Protocol: as §4

[3] = tested on: hematopoietic progenitor cells (cord blood low density cells); test: Human hematopoietic progenitor cell toxicity (colony assay); assay type: cell-based; settings: 12 days; 25 and 2.5 μM for compound (3), 2.5 and 0.25 μM for compound (5)
Protocol: Cord blood low density cells were plated at 1×10^5 cells per plate in 1 mL complete methylcellulose in the presence of each test compound (3) and (5) and incubated for 12 days in a CO2 incubator. Colony-forming unit-granulocyte (CFU-GM), burst-forming unit-erythroid (BFU-E), and mixed colonies were counted under an inverted microscope. […] The test compounds were not toxic to the hematopoietic progenitor cells.

[4] = 25 μM, media with 5% serum, five days (FIG. 2)
[5] = 50 μM, five days, trypan blue cell count (FIG. 1)

Row | Compound | PANC-1 cell proliferation compared to control (PANC-1 cells) | U87MG cell proliferation compared to control (U87MG cells; 6.25 μM, media with 5% serum, five days (FIG. 2)) | U87MG cell proliferation compared to control (U87MG cells; [4]) | U87MG cell proliferation compared to control (U87MG cells; [5]) [%] | inhibition of myofibroblast formation [1] | Schwann cell proliferation relative to the control [2] | level of Ras-GTP relative to the control (Ras-GTP) | IC50 (U87MG cells; Homo sapiens, U-87 MG, value quoted in Example 7, read-out: IC50 as determined on the U87MG cells) [µM] | toxicity to hematopoietic progenitor cells (CFU-GM, BFU-E, mixed colonies) [3]
1 | CC(C)=CCC/C(C)=C/CC/C(C)=C/CSc1ccccc1C(=O)O [FTS, farnesyl-thiosalicylic acid, reference compound] | over 80% | over 80% | over 50% | 7 |  |  |  |  | 
2 | CC(C)=CCC/C(C)=C/CC/C(C)=C/CSc1ccccc1-c1nn[nH]n1 [compound (1), 5-(2-{[(2E,6E)-3,7,11-trimethyldodeca-2,6,10-trien-1-yl]sulfanyl}phenyl)-2H-1,2,3,4-tetrazole] |  |  |  | 37 |  |  |  |  | 
3 | CC(C)=CCC/C(C)=C/CC/C(C)=C/CSc1ccsc1C(=O)O [compound (3), 3-{[(2E,6E)-3,7,11-trimethyldodeca-2,6,10-trien-1-yl]sulfanyl}thiophene-2-carboxylic acid] | 41% |  | 69% | 10 | did not inhibit | reduced | significantly reduced | 25 | not toxic
4 | CCOC(=O)c1nnsc1SC/C=C(\C)CC/C=C(\C)CCC=C(C)C [compound (4), Ethyl 5-{[(2E,6E)-3,7,11-trimethyldodeca-2,6,10-trien-1-yl]sulfanyl}-1,2,3-thiadiazole-4-carboxylate] |  |  |  | 40 |  |  |  |  | 
